Measured values taken from article PMC12881670, “Investigation into ligand selectivity and bias at the formyl peptide receptor family” (The Journal of Pharmacology and Experimental Therapeutics, 2025).
Where a SMILES comes first, the peptide text is derived from it. The star is where a group is joined. Palmitoyl = CCCCCCCCCCCCCCCC(=O)*

Key:
Hs_FPR2 [1] = target: T1, Hs_FPR2 (Homo sapiens, UniProt P25090); test: Competition binding of fluorescent WKYMVm, flow cytometry
T1 construct: expressed in transfected cells
T1 sequence (P25090 1-351): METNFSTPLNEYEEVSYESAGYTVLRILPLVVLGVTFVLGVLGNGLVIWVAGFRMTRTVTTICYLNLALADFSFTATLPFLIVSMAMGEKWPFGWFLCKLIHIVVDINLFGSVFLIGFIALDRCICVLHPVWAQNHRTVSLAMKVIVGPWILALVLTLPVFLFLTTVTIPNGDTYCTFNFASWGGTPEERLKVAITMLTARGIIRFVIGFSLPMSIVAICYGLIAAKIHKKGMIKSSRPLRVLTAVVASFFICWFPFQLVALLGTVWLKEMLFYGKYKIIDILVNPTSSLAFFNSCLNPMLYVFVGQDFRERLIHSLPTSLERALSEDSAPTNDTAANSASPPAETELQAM
Protocol: (§1) Mean cell fluorescence was then measured for 5000 cells by flow cytometry using either a BD FACScalibur or BD Attune.
(§2) All data were analyzed using GraphPad Prism using the nonlinear regression log(agonist) versus response (3 parameters) function for all assays, except binding, which was analyzed using the One site-FitlogIC50 function. Bias calculations were carried out following IUPHAR guidelines as described,[27]^,[37] and data were presented as the Δ Activity ratio (Log[EmaxB/EC50B])-(Log[EmaxA/EC50A]).

Mm_Fpr2 [2] = target: T2, Mm_Fpr2 (Mus musculus, UniProt O88536); test: as above; settings: for Max Comp (%): maximum proportion of competition with 10 nM K(5/6-FAM)-WKYMVm
T2 construct: expressed in transfected cells
T2 sequence (O88536 1-351): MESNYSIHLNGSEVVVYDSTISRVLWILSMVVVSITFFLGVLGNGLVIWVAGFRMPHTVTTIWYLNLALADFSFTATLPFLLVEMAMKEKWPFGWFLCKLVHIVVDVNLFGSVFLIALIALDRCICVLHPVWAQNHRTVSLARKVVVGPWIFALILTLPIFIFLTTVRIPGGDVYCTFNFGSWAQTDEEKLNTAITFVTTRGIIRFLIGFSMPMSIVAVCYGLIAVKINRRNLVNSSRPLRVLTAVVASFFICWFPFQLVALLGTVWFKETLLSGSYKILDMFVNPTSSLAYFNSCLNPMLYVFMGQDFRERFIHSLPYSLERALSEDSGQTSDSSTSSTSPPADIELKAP
Protocol: as §1, §2

Hs_FPR2 [3] = target: T1, Hs_FPR2; test: BRET receptor-RLuc8 interaction with Venus-mGsi; assay type: cell-based
Protocol: (§3) BRET1 assays to measure FPR interaction with Venus-mGsi and Arrestin 3-yellow fluorescent protein (YFP) were performed as previously described.[31]^,[32] Briefly, all FPRs C-terminally fused to Renilla Luciferase (donor, RLuc8) were transiently transfected along with either Venus-mGsi or YFP-Arrestin 3 (acceptor) at a ratio of 1:4. 24 hours post transfection, cells were replated into white-walled, 96-well plates and cultured for a further 24–48 hours. On the day of experimentation, growth media was aspirated and replaced with 80 μl Hanks Buffered Saline Solution and equilibrated for 30 minutes. Coelenterazine h was added to each well to a final concentration of 5 μM for 5 minutes before the addition of each compound, and the plate was incubated for a further 10 minutes at 37 °C before being read on a ClarioStar Plus, with luminescence measured at 480/20 nm (donor) and 530/20 (acceptor). The BRET ratio (acceptor/donor) was determined, and the background (untreated) subtracted to give the N-BRET value.
as §2

Mm_Fpr2 [4] = target: T2, Mm_Fpr2; test: BRET receptor-RLuc8 interaction with Venus-mGsi; assay type: cell-based
Protocol: as §3, §2

Hs_FPR2 [5] = target: T1, Hs_FPR2; test: ERK1/2 phosphorylation by Western blotting; assay type: cell-based
Protocol: (§4) ERK phosphorylation was detected by Western blotting as previously described.[30] Briefly, HEK293 cells stably expressing FLAG-tagged FPRs were plated into 12-well culture plates until 90% confluent. On the day of the experiment, culture media was replaced with serum-free Dulbecco’s modified Eagle’s medium and incubated for 2 hours before stimulation with the indicated compounds. After 7 minutes, the media was removed and stimulation terminated by the addition of 100 μl sample buffer (0.5% SDS, Tris (pH 6.8), glycerol, at >90 °C).
as §2

Mm_Fpr2 [6] = target: T2, Mm_Fpr2; test: ERK1/2 phosphorylation by Western blotting; assay type: cell-based
Protocol: as §4, §2

Hs_FPR2 [7] = target: T1, Hs_FPR2; test: BRET receptor-RLuc8 interaction with Arrestin 3-YFP; assay type: cell-based
Protocol: as §3, §2

Mm_Fpr2 [8] = target: T2, Mm_Fpr2; test: as above; assay type: cell-based
Protocol: as §3, §2

Mm_Fpr2 [9] = target: T2, Mm_Fpr2; test: Internalization of FLAG-tagged receptors by flow cytometry; assay type: cell-based; design: Emax: dose or concentration left out as unconfirmed
Protocol: (§5) Internalization of FPRs was measured by flow cytometry.[30] Briefly, cells were incubated with Alexa Fluor 657 conjugated M1 antiflag antibody (Sigma-Aldrich Cat# F3040, RRID:AB_439712) for 30 minutes at 37 °C to label surface receptors. Cells were then incubated with the indicated concentration of ligand before washing in PBS/0.04% EDTA to remove any remaining surface antibody. Remaining fluorescence was then measured using flow cytometry on either a BD FACScalibur or Attune, recording 5000 gated events. […] As a control, some samples were left untreated, and “strip only” was measured as a readout of constitutive endocytosis, and this value was subtracted from the data. Vehicle control (0.1% DMSO) had no effect on internalization of receptors.
as §2

Mm_Fpr1 [10] = target: T3, Mm_Fpr1 (Mus musculus, UniProt P33766); test: Competition binding of fluorescent WKYMVm, flow cytometry; settings: mean, ND = no competition observed
T3 construct: expressed in transfected cells
T3 sequence (P33766 1-364): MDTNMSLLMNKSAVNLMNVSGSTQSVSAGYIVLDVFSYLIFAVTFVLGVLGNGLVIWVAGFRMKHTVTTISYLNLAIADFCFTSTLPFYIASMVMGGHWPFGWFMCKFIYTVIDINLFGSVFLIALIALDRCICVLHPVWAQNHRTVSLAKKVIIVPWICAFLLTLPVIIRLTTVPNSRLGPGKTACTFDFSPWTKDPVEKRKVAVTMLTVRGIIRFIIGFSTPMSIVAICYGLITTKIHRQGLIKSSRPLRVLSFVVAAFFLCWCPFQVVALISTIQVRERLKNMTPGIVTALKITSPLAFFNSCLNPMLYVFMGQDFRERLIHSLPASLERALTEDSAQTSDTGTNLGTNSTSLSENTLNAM
Protocol: as §1, §2

Mm_Fpr1 [11] = target: T3, Mm_Fpr1; test: BRET receptor-RLuc8 interaction with Venus-mGsi; assay type: cell-based; settings: mGsi BRET, mean, ND = no interaction detected
Protocol: as §3, §2

Mm_Fpr1 [12] = target: T3, Mm_Fpr1; test: ERK1/2 phosphorylation by Western blotting; assay type: cell-based; settings: mean, ND = no pERK signal detected
Protocol: as §4, §2

Mm_Fpr1 [13] = target: T3, Mm_Fpr1; test: BRET receptor-RLuc8 interaction with Arrestin 3-YFP; assay type: cell-based; settings: Arrestin 3 BRET, % of response to 1 μM WKYMVm; mean; ND = no interaction detected
Protocol: as §3, §2

Mm_Fpr1 [14] = target: T3, Mm_Fpr1; test: Internalization of FLAG-tagged receptors by flow cytometry; assay type: cell-based; design: Emax: dose or concentration left out as unconfirmed
Protocol: as §5, §2

[15] = tested on: formyl peptide receptor family (Hs_FPR1, Hs_FPR2, Mm_Fpr1, Mm_Fpr2); test: Summary of main findings: receptor subtype selectivity and ligand bias across all readouts; design: species or system human and mouse
Text: To determine ligand bias, a reference ligand is required, that is, “balanced” for the pathways tested.[37] […] We then used measurements of the activity ratio (Log (Emax/EC50)) for each receptor, ligand, and pathway in an attempt to observe any ligand bias (Fig. 6).

[16] = mean, ND = no competition observed
[17] = log of EC50, phosphorylation of ERK1/2, HEK293 stable cells, mean, ND = no pERK signal detected

With `CCCCCCCCCCCCCCCC(=O)N[C@@H](CCCCN)C(=O)N[C@H](C(=O)N[C@@H](Cc1c[nH]cn1)C(=O)N[C@@H](CCCCN)C(=O)N[C@@H](CCCCN)C(=O)NCC(=O)N[C@@H](CCSC)C(=O)N[C@H](C(=O)N[C@@H](CCCCN)C(=O)N[C@@H](CO)C(=O)O)[C@@H](C)CC)[C@@H](C)CC` [F2Pal10] (Palmitoyl-KIHKKGMIKS-OH) the IC50 (Hs_FPR2 [1]) was 5370 nM, the “Max Comp (%)” value (Hs_FPR2 [1]; maximum proportion of competition with 10 nM K(5/6-FAM)-WKYMVm, mean, ND = no competition observed) was 100% and the IC50 (Mm_Fpr2 [2]) was 4200 nM. The “Max Comp (%)” value (Mm_Fpr2 [2]; [16]) was 100%, the EC50 (Hs_FPR2 [3]) was 166 nM and the Emax (Hs_FPR2 [3]) was 19.4%. The “Gi interaction, % of that seen with WKYMVm” value (Hs_FPR2 [3]; only detected at 1 and 10 μM) was 20%, the EC50 (Mm_Fpr2 [4]) was 166 nM and the Emax (Mm_Fpr2 [4]) was 24.2%. For the same compound, the Emax (Hs_FPR2 [5]) was 80.8%, the EC50 (Hs_FPR2 [5]; [17]) was 33.7 nM and the Emax (Mm_Fpr2 [6]) was 141%. It also gave an EC50 (Mm_Fpr2 [6]; [17]) of 53.3 nM, an Emax (Hs_FPR2 [7]) of 25.5% and an EC50 (Hs_FPR2 [7]; read-out: Log EC50 (converted)) of 282 nM. The EC50 (Mm_Fpr2 [8]) was 263 nM, the Emax (Mm_Fpr2 [8]) was 33.4% and the Emax (Mm_Fpr2 [9]) was 12.3%.

With `CC(C)c1c(NC(=O)Nc2ccc(Cl)cc2)c(=O)n(-c2ccccc2)n1C` [TC-FPR43] the “Log IC50 (M)” value (Mm_Fpr1 [10]; log of IC50, competition with 10 nM K(5/6-FAM)-WKYMVm, HEK293 stable cells, on ice 90 min) was −5.926 M, the “Max Comp (%)” value (Mm_Fpr1 [10]; maximum proportion of competition with 10 nM K(5/6-FAM)-WKYMVm) was 61.39% and the “Log IC50 (M)” value (Mm_Fpr2 [2]; log of IC50, competition with 10 nM K(5/6-FAM)-WKYMVm, HEK293 stable cells, on ice 90 min, mean, ND = no competition observed) was −6.16 M. For the same compound, the “Max Comp (%)” value (Mm_Fpr2 [2]; [16]) was 29.56%, the “Log EC50 (M)” value (Mm_Fpr1 [11]; log of EC50, HEK293 transient, 10 min) was −7.09 M and the “Emax (%)” value (Mm_Fpr1 [11]; % of response to 1 μM WKYMVm) was 12.62%. The “Log EC50 (M)” value (Mm_Fpr2 [4]; log of EC50, mGsi BRET, HEK293 transient, 10 min, mean, ND = no interaction detected) was −6.19 M, the “Emax (%)” value (Mm_Fpr2 [4]; mGsi BRET, % of response to 1 μM WKYMVm, mean, ND = no interaction detected) was 73.16% and the “Log EC50 (M)” value (Mm_Fpr1 [12]; log of EC50, phosphorylation of ERK1/2, HEK293 stable cells) was −7.589 M. For the same compound, the “Emax (%)” value (Mm_Fpr1 [12]; phospho-ERK, % of 1 μM WKYMVm) was 78.28%, the “Log EC50 (M)” value (Mm_Fpr2 [6]; [17]) was −6.775 M and the “Emax (%)” value (Mm_Fpr2 [6]; phospho-ERK, % of 1 μM WKYMVm, mean, ND = no pERK signal detected) was 147.8%. The “Emax (%)” value (Mm_Fpr1 [13]) was 39.42%, the “Emax (%)” value (Mm_Fpr2 [8]; Arrestin 3 BRET, % of response to 1 μM WKYMVm, mean, ND = no interaction detected) was 73.06% and the “Log EC50 (M)” value (Mm_Fpr2 [8]; log of EC50, Arrestin 3 BRET, HEK293 transient, 10 min, mean, ND = no interaction detected) was −6.20 M. The “Emax (%), internalization, Mean” value (Mm_Fpr1 [14]; % of internalization to WKYMVm (1 mM in legend, 1 μM in text), Mm_Fpr1, 30 minutes, ND denotes no internalization measured) was 95.95%, the “Log EC50 (M), internalization, Mean” value (Mm_Fpr1 [14]; Log EC50, HEK293 stably expressing FLAG-Mm_Fpr1, ligand 30 minutes, ND denotes no internalization measured) was −6.155 M and the “agonist-induced internalization (words)” value (Mm_Fpr1 [14]; Mm_Fpr1, 30 min, relative to 1 μM WKYMVm) was “partial agonists”. The “Emax (%), internalization, Mean” value (Mm_Fpr2 [9]; % of internalization to WKYMVm (1 mM in legend, 1 μM in text), Mm_Fpr2, 30 minutes) was 42.90%, the “Log EC50 (M), internalization, Mean” value (Mm_Fpr2 [9]; Log EC50, HEK293 stably expressing FLAG-Mm_Fpr2, ligand 30 minutes) was −7.063 M and the “agonist-induced internalization (words)” value (Mm_Fpr2 [9]; Mm_Fpr2, 30 min, relative to 1 μM WKYMVm) was “partial agonists”. For the same compound, the Bias ([15]; summary grade of ligand bias relative to WKYMVm, key not given) was “No” and the Notes ([15]; summary of main findings, in words) was “Partial/weak only”.
